Experimental data taken from the NIST ThermoML archive (doi:10.1016/j.jct.2003.11.008).

What was measured:
[1] = xn = mol fraction of the nth substance listed; details: 318.15 K, 101.3 kPa, Liquid
[2] = excess molar enthalpy (molar enthalpy of mixing); xn = mol fraction of the nth substance listed; details: 318.15 K, 101.3 kPa, Liquid

CCCCCCCCCCCCCCC [pentadecane] + COC(C)=O
Details | excess molar enthalpy [kcal/mol] | excess molar volume [m3/mol]
[1], x2 = 0.1527 | – | 8.72e-07
[1], x2 = 0.2889 | – | 1.467e-06
[1], x2 = 0.3786 | – | 1.739e-06
[1], x2 = 0.4627 | – | 1.898e-06
[1], x2 = 0.5368 | – | 1.979e-06
[1], x2 = 0.5993 | – | 2.002e-06
[1], x2 = 0.6511 | – | 1.945e-06
[1], x2 = 0.6955 | – | 1.858e-06
[1], x2 = 0.7356 | – | 1.746e-06
[1], x2 = 0.777 | – | 1.644e-06
[1], x2 = 0.8099 | – | 1.512e-06
[1], x2 = 0.8412 | – | 1.386e-06
[1], x2 = 0.8595 | – | 1.259e-06
[1], x2 = 0.9126 | – | 9.19e-07
[1], x2 = 0.9511 | – | 5.84e-07
[1], x2 = 0.9777 | – | 2.73e-07
[2], x2 = 0.091 | 0.14 | –
[2], x2 = 0.1824 | 0.272 | –
[2], x2 = 0.2689 | 0.391 | –
[2], x2 = 0.3572 | 0.488 | –
[2], x2 = 0.4282 | 0.549 | –
[2], x2 = 0.4946 | 0.586 | –
[2], x2 = 0.5472 | 0.6 | –
[2], x2 = 0.5908 | 0.601 | –
[2], x2 = 0.6306 | 0.594 | –
[2], x2 = 0.6559 | 0.584 | –
[2], x2 = 0.6897 | 0.567 | –
[2], x2 = 0.7229 | 0.544 | –
[2], x2 = 0.7578 | 0.52 | –
[2], x2 = 0.7947 | 0.484 | –
[2], x2 = 0.8299 | 0.438 | –
[2], x2 = 0.8675 | 0.385 | –
[2], x2 = 0.905 | 0.316 | –
[2], x2 = 0.94 | 0.238 | –
[2], x2 = 0.9723 | 0.148 | –

CCCCCCCCCCCCCCCCC [heptadecane] + CCCCOC(C)=O
Details | excess molar enthalpy [kcal/mol] | excess molar volume [m3/mol]
[1], x2 = 0.0632 | – | 1.97e-07
[1], x2 = 0.104 | – | 3.47e-07
[1], x2 = 0.1206 | – | 3.85e-07
[1], x2 = 0.1949 | – | 5.9e-07
[1], x2 = 0.2755 | – | 7.8e-07
[1], x2 = 0.3444 | – | 9e-07
[1], x2 = 0.4115 | – | 9.79e-07
[1], x2 = 0.4696 | – | 1.048e-06
[1], x2 = 0.515 | – | 1.082e-06
[1], x2 = 0.5713 | – | 1.082e-06
[1], x2 = 0.6623 | – | 1.03e-06
[1], x2 = 0.7646 | – | 9.06e-07
[1], x2 = 0.842 | – | 6.95e-07
[1], x2 = 0.8976 | – | 5.2e-07
[1], x2 = 0.9384 | – | 3.47e-07
[1], x2 = 0.9717 | – | 1.79e-07
[2], x2 = 0.0954 | 0.11 | –
[2], x2 = 0.1878 | 0.201 | –
[2], x2 = 0.2686 | 0.269 | –
[2], x2 = 0.3397 | 0.318 | –
[2], x2 = 0.4009 | 0.349 | –
[2], x2 = 0.4599 | 0.371 | –
[2], x2 = 0.5118 | 0.382 | –
[2], x2 = 0.5532 | 0.382 | –
[2], x2 = 0.5903 | 0.381 | –
[2], x2 = 0.5962 | 0.381 | –
[2], x2 = 0.6293 | 0.369 | –
[2], x2 = 0.6674 | 0.352 | –
[2], x2 = 0.7073 | 0.332 | –
[2], x2 = 0.7491 | 0.304 | –
[2], x2 = 0.7926 | 0.271 | –
[2], x2 = 0.8356 | 0.232 | –
[2], x2 = 0.8781 | 0.187 | –
[2], x2 = 0.9208 | 0.133 | –
[2], x2 = 0.9615 | 0.0716 | –

CCCCCCCCCCCCCCC [pentadecane] + CCCCOC(C)=O
Details | excess molar enthalpy [kcal/mol] | excess molar volume [m3/mol]
[1], x2 = 0.1004 | – | 3.55e-07
[1], x2 = 0.1982 | – | 6.25e-07
[1], x2 = 0.2765 | – | 7.99e-07
[1], x2 = 0.3418 | – | 9.17e-07
[1], x2 = 0.417 | – | 9.97e-07
[1], x2 = 0.4757 | – | 1.034e-06
[1], x2 = 0.5299 | – | 1.057e-06
[1], x2 = 0.5843 | – | 1.052e-06
[1], x2 = 0.6319 | – | 1.024e-06
[1], x2 = 0.6767 | – | 9.8e-07
[1], x2 = 0.7173 | – | 9.26e-07
[1], x2 = 0.7606 | – | 8.62e-07
[1], x2 = 0.7836 | – | 8.17e-07
[1], x2 = 0.8619 | – | 5.97e-07
[1], x2 = 0.9208 | – | 3.91e-07
[1], x2 = 0.9647 | – | 1.72e-07
[2], x2 = 0.0884 | 0.0988 | –
[2], x2 = 0.1775 | 0.179 | –
[2], x2 = 0.2593 | 0.249 | –
[2], x2 = 0.3266 | 0.29 | –
[2], x2 = 0.3936 | 0.322 | –
[2], x2 = 0.4468 | 0.341 | –
[2], x2 = 0.4996 | 0.353 | –
[2], x2 = 0.5472 | 0.356 | –
[2], x2 = 0.5896 | 0.353 | –
[2], x2 = 0.6217 | 0.345 | –
[2], x2 = 0.6332 | 0.341 | –
[2], x2 = 0.6756 | 0.322 | –
[2], x2 = 0.7198 | 0.298 | –
[2], x2 = 0.7661 | 0.269 | –
[2], x2 = 0.8132 | 0.232 | –
[2], x2 = 0.8631 | 0.187 | –
[2], x2 = 0.9114 | 0.132 | –
[2], x2 = 0.9607 | 0.0673 | –

CCCCCOC(C)=O [pentyl ethanoate] + CCCCCCCCCCC
Details | excess molar enthalpy [kcal/mol] | excess molar volume [m3/mol]
[1], x1 = 0.0737 | – | 2.57e-07
[1], x1 = 0.1355 | – | 4.05e-07
[1], x1 = 0.2015 | – | 5.38e-07
[1], x1 = 0.2641 | – | 6.43e-07
[1], x1 = 0.3197 | – | 7.07e-07
[1], x1 = 0.3776 | – | 7.48e-07
[1], x1 = 0.4395 | – | 7.8e-07
[1], x1 = 0.4861 | – | 7.92e-07
[1], x1 = 0.5386 | – | 7.87e-07
[1], x1 = 0.5852 | – | 7.75e-07
[1], x1 = 0.6345 | – | 7.38e-07
[1], x1 = 0.6828 | – | 6.92e-07
[1], x1 = 0.713 | – | 6.43e-07
[1], x1 = 0.8089 | – | 4.89e-07
[1], x1 = 0.8864 | – | 3.26e-07
[1], x1 = 0.9483 | – | 1.64e-07
[2], x1 = 0.083 | 0.0857 | –
[2], x1 = 0.1513 | 0.138 | –
[2], x1 = 0.225 | 0.185 | –
[2], x1 = 0.2965 | 0.221 | –
[2], x1 = 0.3642 | 0.246 | –
[2], x1 = 0.4271 | 0.259 | –
[2], x1 = 0.4836 | 0.264 | –
[2], x1 = 0.5356 | 0.262 | –
[2], x1 = 0.5749 | 0.254 | –
[2], x1 = 0.6055 | 0.246 | –
[2], x1 = 0.6529 | 0.23 | –
[2], x1 = 0.7058 | 0.209 | –
[2], x1 = 0.7614 | 0.182 | –
[2], x1 = 0.8186 | 0.15 | –
[2], x1 = 0.8782 | 0.108 | –
[2], x1 = 0.9384 | 0.0617 | –

CCCOC(C)=O [propyl ethanoate] + CCCCCCCCC
Details | excess molar enthalpy, [2] [kcal/mol] | excess molar volume, [1] [m3/mol]
x1 = 0.0866 | 0.109 | 3.76e-07
x1 = 0.1486 | – | 5.74e-07
x1 = 0.1795 | 0.191 | –
x1 = 0.2182 | – | 7.77e-07
x1 = 0.2657 | 0.255 | –
x1 = 0.2774 | – | 8.96e-07
x1 = 0.344 | 0.294 | –
x1 = 0.3451 | – | 9.99e-07
x1 = 0.4053 | – | 1.075e-06
x1 = 0.4115 | 0.318 | –
x1 = 0.4561 | – | 1.101e-06
x1 = 0.4797 | 0.33 | –
x1 = 0.5089 | – | 1.111e-06
x1 = 0.5358 | 0.328 | –
x1 = 0.5631 | – | 1.094e-06
x1 = 0.5815 | 0.321 | –
x1 = 0.6115 | – | 1.058e-06
x1 = 0.6251 | 0.307 | –
x1 = 0.6577 | – | 1.012e-06
x1 = 0.6703 | 0.287 | –
x1 = 0.7051 | – | 9.38e-07
x1 = 0.7182 | 0.262 | –
x1 = 0.7328 | – | 8.95e-07
x1 = 0.7662 | 0.233 | –
x1 = 0.8182 | 0.197 | –
x1 = 0.8254 | – | 6.64e-07
x1 = 0.8684 | 0.155 | –
x1 = 0.8966 | – | 4.35e-07
x1 = 0.9158 | 0.105 | –
x1 = 0.9496 | – | 2.29e-07
x1 = 0.9598 | 0.0553 | –
